Patent US10947242B2, “[1,2,4]triazolo[1,5and#8208;A]pyrimidine compounds as PDE2 inhibitors” (Janssen Pharmaceutica NV, priority 2016, dated 2021)
pIC50: −log10 of the molar value. Counter-ions that a name gives are not always drawn. Like-named read-outs stand apart in the source and are kept apart here.

Assays:
Format in all cases: biochemical
[1] = target: T1, Human recombinant PDE10A (hPDE10A) (Homo sapiens, UniProt Q9Y233); assay: In vitro assay PDE10A, human clone (SPA, 3H-cAMP hydrolysis)
T1 construct: His tag (inferred from metal chelate purification); made in house; host or cells: Sf9 insect cells (baculovirus)
T1 sequence (Q9Y233 267-1055): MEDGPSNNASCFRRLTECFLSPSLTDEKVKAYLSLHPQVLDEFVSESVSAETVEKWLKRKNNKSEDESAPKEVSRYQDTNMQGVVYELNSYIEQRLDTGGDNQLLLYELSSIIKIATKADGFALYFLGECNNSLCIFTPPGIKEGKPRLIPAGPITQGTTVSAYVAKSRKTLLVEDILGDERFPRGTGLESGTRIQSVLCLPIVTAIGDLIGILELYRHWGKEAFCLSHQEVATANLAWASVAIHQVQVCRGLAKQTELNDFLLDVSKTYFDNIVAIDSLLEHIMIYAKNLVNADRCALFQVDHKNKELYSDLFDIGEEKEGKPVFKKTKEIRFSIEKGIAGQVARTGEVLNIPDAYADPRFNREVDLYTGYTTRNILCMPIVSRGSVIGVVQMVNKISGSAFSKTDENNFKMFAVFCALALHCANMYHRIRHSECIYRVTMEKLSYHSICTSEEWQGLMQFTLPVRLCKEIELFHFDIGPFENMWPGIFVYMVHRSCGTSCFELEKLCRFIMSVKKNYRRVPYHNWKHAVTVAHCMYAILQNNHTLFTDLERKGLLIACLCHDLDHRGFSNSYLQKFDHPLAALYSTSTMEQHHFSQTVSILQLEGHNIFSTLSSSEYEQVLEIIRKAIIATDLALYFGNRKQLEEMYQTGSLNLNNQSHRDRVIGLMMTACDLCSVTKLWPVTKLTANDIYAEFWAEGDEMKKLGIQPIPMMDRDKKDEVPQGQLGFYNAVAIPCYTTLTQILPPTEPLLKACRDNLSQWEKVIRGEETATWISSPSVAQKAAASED
Experimental: Rat recombinant PDE10A (rPDE10A2) was expressed in Sf9 cells using a recombinant rPDE10A baculovirus construct. […] Tested compounds were dissolved and diluted in 100% DMSO to a concentration 100 fold of the final concentration in the assay. Human recombinant PDE10A ([…]) was expressed in Sf9 cells using a recombinant hPDE10A baculovirus that was made and amplified in house. […] Compound dilutions (0.4 μl) were added in 384 well plates to 20 μl of incubation buffer (50 mM Tris pH 7.8, 8.3 mM MgCl2, 1.7 mM EGTA). 10 μl of rPDE10A or hPDE10A enzyme in incubation buffer was added and the reaction was started by addition of 10 μl substrate to a final concentration of 60 nM cAMP and 0.008 μCi ^3H-cAMP. The reaction was incubated for 60 minutes at room temperature. […] After sedimentation of the beads during 30 minutes the radioactivity was measured in a Perkin Elmer Topcount scintillation counter and results were expressed as cpm. For blanc values the enzyme was omitted from the reaction and replaced by incubation buffer. Control values were obtained by addition of a final concentration of 1% DMSO instead of compound.

[2] = target: T2, Human recombinant PDE3A (hPDE3A) (Homo sapiens, UniProt Q14432); assay: In vitro assay PDE3A (SPA, 3H-cAMP hydrolysis); settings: for IC50: hPDE3B pIC50, read-out: pIC50 (converted); for Emax: read-out: hPDE3B Emax, read-out: Emax;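 as to all read-outs here: the method names PDE3A and the table heading PDE3B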
T2 construct: purchased Scottish Biomedical; host or cells: Sf9 insect cells
T2 sequence (Q14432 whole entry): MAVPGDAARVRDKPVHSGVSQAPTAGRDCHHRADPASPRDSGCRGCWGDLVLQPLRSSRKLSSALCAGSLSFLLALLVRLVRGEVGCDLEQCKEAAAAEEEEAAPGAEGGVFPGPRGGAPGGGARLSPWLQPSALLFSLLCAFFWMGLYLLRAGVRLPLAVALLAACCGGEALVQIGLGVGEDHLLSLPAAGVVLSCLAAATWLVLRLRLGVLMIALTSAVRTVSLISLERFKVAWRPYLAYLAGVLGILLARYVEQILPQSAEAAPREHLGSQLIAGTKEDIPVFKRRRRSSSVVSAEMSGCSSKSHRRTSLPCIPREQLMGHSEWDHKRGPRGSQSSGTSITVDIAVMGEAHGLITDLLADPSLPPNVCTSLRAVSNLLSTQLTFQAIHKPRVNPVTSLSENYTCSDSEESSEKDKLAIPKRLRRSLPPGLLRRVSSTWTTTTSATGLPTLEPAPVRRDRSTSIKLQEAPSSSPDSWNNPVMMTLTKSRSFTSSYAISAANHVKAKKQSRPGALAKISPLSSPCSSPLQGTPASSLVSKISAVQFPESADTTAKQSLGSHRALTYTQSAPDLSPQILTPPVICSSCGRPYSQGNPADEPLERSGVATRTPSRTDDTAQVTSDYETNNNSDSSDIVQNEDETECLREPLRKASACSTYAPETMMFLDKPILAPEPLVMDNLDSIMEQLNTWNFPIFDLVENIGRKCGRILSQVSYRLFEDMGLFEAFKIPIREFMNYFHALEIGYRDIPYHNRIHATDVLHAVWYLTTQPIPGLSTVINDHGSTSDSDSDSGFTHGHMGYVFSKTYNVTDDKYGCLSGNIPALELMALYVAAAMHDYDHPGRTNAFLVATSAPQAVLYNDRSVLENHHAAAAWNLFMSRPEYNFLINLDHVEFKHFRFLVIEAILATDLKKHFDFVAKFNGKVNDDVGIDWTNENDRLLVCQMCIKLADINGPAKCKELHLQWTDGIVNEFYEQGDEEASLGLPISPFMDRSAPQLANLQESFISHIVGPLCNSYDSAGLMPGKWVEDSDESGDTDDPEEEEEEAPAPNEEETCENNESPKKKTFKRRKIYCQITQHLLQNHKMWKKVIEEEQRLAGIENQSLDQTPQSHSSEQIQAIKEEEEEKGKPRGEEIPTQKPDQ
Experimental: Human recombinant PDE3A (hPDE3A) was supplied as a partially purified insect cell lysate by Scottish Biomedical, it was cloned from human brain and expressed in Sf9 cells. Tested compounds were dissolved and diluted in 100% DMSO to a concentration 100 fold of the final concentration in the assay. Compound dilutions (0.4 μl) were added in 384 well plates to 20 μl of incubation buffer (50 mM Tris pH 7.8, 8.3 mM MgCl2, 1.7 mM EGTA). 10 μl of hPDE3A enzyme in incubation buffer was added and the reaction was started by addition of 10 μl substrate to a final concentration of 0.4 μM cAMP and 2.4 μCi/ml [^3H]-cAMP. The reaction was incubated for 60 min at room temperature. […] After sedimentation of the beads during 30 min the radioactivity was measured in a Perkin Elmer Topcount scintillation counter and results were expressed as cpm. For blanc values the enzyme was omitted from the reaction and replaced by incubation buffer. Control values were obtained by addition of a final concentration of 1% DMSO instead of compound.

[3] = target: T3, Human recombinant PDE2A (hPDE2A) (Homo sapiens, UniProt O00408); assay: In vitro assay PDE2A (SPA, 3H-cGMP hydrolysis); settings: for IC50: read-out: hPDE2A pIC50 (converted); for Emax: read-out: hPDE2A Emax
T3 construct: His tag (inferred from metal chelate purification); made in house; host or cells: Sf9 insect cells (baculovirus)
T3 sequence (O00408 whole entry): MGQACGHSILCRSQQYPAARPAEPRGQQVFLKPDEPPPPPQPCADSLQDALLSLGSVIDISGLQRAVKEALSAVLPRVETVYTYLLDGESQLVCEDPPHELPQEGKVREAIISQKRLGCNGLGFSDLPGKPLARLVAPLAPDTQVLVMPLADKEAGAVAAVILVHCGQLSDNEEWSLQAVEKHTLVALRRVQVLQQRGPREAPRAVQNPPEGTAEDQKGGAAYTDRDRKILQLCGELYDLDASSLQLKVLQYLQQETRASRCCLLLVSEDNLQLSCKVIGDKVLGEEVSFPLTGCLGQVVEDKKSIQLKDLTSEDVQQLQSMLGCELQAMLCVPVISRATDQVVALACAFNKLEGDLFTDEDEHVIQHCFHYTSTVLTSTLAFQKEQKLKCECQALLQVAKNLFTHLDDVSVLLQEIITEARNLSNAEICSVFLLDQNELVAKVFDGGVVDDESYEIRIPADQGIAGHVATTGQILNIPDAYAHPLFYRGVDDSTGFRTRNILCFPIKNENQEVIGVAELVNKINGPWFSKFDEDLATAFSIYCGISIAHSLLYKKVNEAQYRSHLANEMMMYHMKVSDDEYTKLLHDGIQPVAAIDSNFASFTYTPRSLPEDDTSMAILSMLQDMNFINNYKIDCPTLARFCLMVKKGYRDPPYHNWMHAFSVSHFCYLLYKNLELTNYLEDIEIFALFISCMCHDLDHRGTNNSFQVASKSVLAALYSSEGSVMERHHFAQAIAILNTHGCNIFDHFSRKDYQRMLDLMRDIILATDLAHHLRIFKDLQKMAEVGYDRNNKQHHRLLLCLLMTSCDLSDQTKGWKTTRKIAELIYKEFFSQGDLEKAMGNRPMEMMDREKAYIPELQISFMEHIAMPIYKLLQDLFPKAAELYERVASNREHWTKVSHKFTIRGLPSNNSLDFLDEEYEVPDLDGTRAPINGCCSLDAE

[4] = human clone (h), default, read-out: hPDE10A2 Emax
[5] = human clone (h), default, read-out: hPDE10A2 pIC50 (converted)
[6] = human recombinant PDE2A, 10 μM cGMP substrate
[7] = hPDE2A pIC50, human recombinant PDE2A, 10 μM cGMP substrate

Row | Emax [1, 4] [%] | IC50 [1, 5] [nM] | IC50 [2] [µM] | Emax [2] [%] | IC50 [3, 6] [nM] | Emax ([3]; human recombinant PDE2A) [%] | Emax [3] [%] | IC50 [3] [nM] | Emax ([1]; human clone by default (no (r) mark), read-out: hPDE10A2 or rPDE10A2 Emax) [%] | IC50 ([1]; human clone by default (no (r) mark), read-out: hPDE10A2 or rPDE10A2 pIC50 (converted)) [nM] | hPDE10A2 Emax ([1]; human clone (h), default) | hPDE10A2 pIC50 ([1]; human clone (h), default) | hPDE3B Emax [2] | hPDE2A Emax [3] | hPDE2A pIC50 [3] | hPDE2A Emax ([3]; human recombinant PDE2A) | hPDE2A pIC50 [3, 6] | SMILES | pIC50 [3, 7] | pIC50 ([3]; hPDE2A pIC50)
1 | 79 | 2570 | > 10 | 39 | 9.55 | 100 | 100 | 9.55 | – | – | – | – | – | – | – | – | – | CCCC[C@@H]1CCN(C(=O)c2cc(C)nc(C)c2)C[C@H]1c1cc(C(F)F)nc2ncnn12 (mixture of isomers) [Compound 44] | – | –
2 | 45 | 9120 | > 10 | 18 | 138 | 100 | 100 | 138 | 45 | 9120 | – | – | – | – | – | – | – | CCCC[C@H]1CCN(C(=O)c2cc(C)nc(C)c2)C[C@H]1c1cc(C(F)F)nc2ncnn12 (mixture of isomers) [Compound 219] | – | –
3 | 24 | > 10000 | > 10 | 1 | > 10000 | 37 | 37 | > 10000 | – | – | – | – | – | – | – | – | – | CCCC[C@@H]1CCN(C(=O)c2cc(C)nc(C)c2)C[C@H]1c1cc(C(F)F)nc2ncnn12 (single isomer, unassigned) [Compound 45] | – | –
4 | 24 | > 10000 | 4.9 | 64 | – | – | 93 | 28.2 | – | – | – | – | – | – | – | – | – | O=C(c1ccc2occc2c1)N1CCC[C@](F)(c2cc(C(F)F)nc3ncnn23)C1 (single isomer, unassigned) [Compound 138] | – | –
5 | 13 | > 10000 | > 10 | 35 | 97.7 | 91 | 91 | 97.7 | – | – | – | – | – | – | – | – | – | C[C@]1(c2cc(C(F)F)nc3ncnn23)CCCN(C(=O)c2ccc3c(ccn3CCF)c2)C1 (single isomer, unassigned) [Compound 200] | – | –
6 | 4 | > 10000 | > 10 | 30 | 589 | 62 | 62 | 589 | – | – | – | – | – | – | – | – | – | Cc1csc(C(=O)N2CCC[C@](C)(c3cc(C(F)F)nc4ncnn34)C2)c1 (single isomer, unassigned) [Compound 208] | – | –
7 | 8 | > 10000 | > 10 | 7 | 575 | 61 | 61 | 575 | – | – | – | – | – | – | – | – | – | C[C@]1(c2cc(C(F)F)nc3ncnn23)CCCN(C(=O)c2ccc3nccn3c2)C1 (single isomer, unassigned) [Compound 212] | – | –
8 | – | – | – | – | – | – | – | – | – | – | 7 | <5 | 0 | 21 | <5 | 21 | <5 | Cc1cc(C(=O)N2CC[C@@H](C)[C@H](c3cc(C#N)nc4ncnn34)C2)cc(C)n1 [Compound 26a] | – | –

The next lines start with the compound.

Row | SMILES | Emax [1, 4] [%] | IC50 [1, 5] [nM] | IC50 [2] [µM] | Emax [2] [%] | IC50 [3, 6] [nM] | Emax ([3]; human recombinant PDE2A) [%] | Emax [3] [%] | IC50 [3] [nM] | Emax ([1]; human clone by default (no (r) mark), read-out: hPDE10A2 or rPDE10A2 Emax) [%] | IC50 ([1]; human clone by default (no (r) mark), read-out: hPDE10A2 or rPDE10A2 pIC50 (converted)) [nM] | hPDE10A2 Emax ([1]; human clone (h), default) | hPDE10A2 pIC50 ([1]; human clone (h), default) | hPDE3B Emax [2] | hPDE2A Emax [3] | hPDE2A pIC50 [3] | hPDE2A Emax ([3]; human recombinant PDE2A) | hPDE2A pIC50 [3, 6] | pIC50 [3, 7] | pIC50 ([3]; hPDE2A pIC50)
9 | Cc1cc(C(=O)N2CC[C@H](C)[C@@H](c3cc(C(F)F)nc4ncnn34)C2)cc(C)n1 [220 (•HCl)] | 27 | > 10000 | – | – | – | – | 54 | – | – | – | – | – | – | – | – | – | – | 6.01 | –
10 | Cc1cc(C(=O)N2CC[C@H](C)[C@@H](c3cc(C)nc4ncnn34)C2)cc(C)n1 [Compound 1b] | – | – | – | – | – | – | – | – | – | – | 50 | 5.01 | 13 | 88 | 5.96 | 88 | 5.96 | – | –
11 | Cc1cc([C@H]2CN(C(=O)c3ccc(C)c(C)n3)CC[C@@H]2C)n2ncnc2n1 [Compound 3b] | 19 | > 10000 | > 10 | 14 | – | – | 64 | – | – | – | – | – | – | – | – | – | – | 5.25 | 5.25
12 | Cc1cc([C@@H]2CN(C(=O)c3ccc4occ(C)c4c3)CC[C@H]2C)n2ncnc2n1 [Compound 5] | 100 | 8.91 | 0.589 | 97 | – | – | 100 | – | – | – | – | – | – | – | – | – | – | 9.02 | 9.02
13 | Cc1cc([C@@H]2CN(C(=O)c3oc4ccccc4c3C)CC[C@H]2C)n2ncnc2n1 [Compound 7] | 101 | 17 | 0.0759 | 100 | 0.794 | 100 | 100 | 0.794 | – | – | – | – | – | – | – | – | – | – | –
14 | Cc1cc([C@@H]2CN(C(=O)c3cc4ccccc4o3)CC[C@H]2C)n2ncnc2n1 [Compound 8] | 100 | 11.2 | 0.275 | 97 | 1.1 | 100 | 100 | 1.1 | – | – | – | – | – | – | – | – | – | – | –
15 | Cc1cc([C@@H]2CN(C(=O)c3ccc(C(C)(C)C)o3)CC[C@H]2C)n2ncnc2n1 [Compound 9] | 100 | 74.1 | 4.27 | 74 | 13.8 | 101 | 101 | 13.8 | – | – | – | – | – | – | – | – | – | – | –
16 | Cc1cc([C@@H]2CN(C(=O)c3ccnc(Cl)c3F)CC[C@H]2C)n2ncnc2n1 [Compound 11] | 95 | 372 | 4.79 | 69 | 22.9 | 100 | 100 | 22.9 | – | – | – | – | – | – | – | – | – | – | –
17 | Cc1cc([C@@H]2CN(C(=O)c3cc4c(nc3Cl)CCCC4)CC[C@H]2C)n2ncnc2n1 [Compound 12] | 97 | 363 | 1.1 | 94 | 21.4 | 101 | 101 | 21.4 | – | – | – | – | – | – | – | – | – | – | –
18 | Cc1cc([C@@H]2CN(C(=O)c3ccn(C)c3)CC[C@H]2C)n2ncnc2n1 [Compound 14] | 99 | 89.1 | 4.68 | 70 | 6.03 | 99 | 99 | 6.03 | – | – | – | – | – | – | – | – | – | – | –
19 | Cc1cc([C@@H]2CN(C(=O)c3ccnc(Cl)c3)CC[C@H]2C)n2ncnc2n1 [Compound 15] | 97 | 72.4 | 8.13 | 54 | – | – | 100 | – | – | – | – | – | – | – | – | – | – | 8.49 | 8.49
20 | Cc1cc([C@@H]2CN(C(=O)c3cc(C)sc3C)CC[C@H]2C)n2ncnc2n1 [Compound 16] | 98 | 63.1 | 1.66 | 88 | 6.17 | 100 | 100 | 6.17 | – | – | – | – | – | – | – | – | – | – | –
21 | Cc1cc([C@@H]2CN(C(=O)c3cnc(Cl)c(Cl)c3)CC[C@H]2C)n2ncnc2n1 [Compound 17] | 97 | 81.3 | 4.27 | 74 | 4.9 | 99 | 99 | 4.9 | – | – | – | – | – | – | – | – | – | – | –
22 | Cc1cc([C@@H]2CN(C(=O)c3cccc4nc(C)oc34)CC[C@H]2C)n2ncnc2n1 [Compound 19] | 96 | 129 | 3.09 | 79 | 10.5 | 101 | 101 | 10.5 | – | – | – | – | – | – | – | – | – | – | –
23 | Cc1cc([C@@H]2CN(C(=O)c3cnc4ccc(C(F)(F)F)cn34)CC[C@H]2C)n2ncnc2n1 [Compound 20] | 98 | 132 | 4.27 | 74 | 12 | 101 | 101 | 12 | – | – | – | – | – | – | – | – | – | – | –
24 | Cc1cc([C@@H]2CN(C(=O)c3nc4ccccc4o3)CC[C@H]2C)n2ncnc2n1 [Compound 21] | 97 | 132 | 1.51 | 89 | 4.57 | 99 | 99 | 4.57 | – | – | – | – | – | – | – | – | – | – | –
25 | Cc1cc(C(=O)N2CC[C@H](C)[C@@](F)(c3cc(C(F)F)nc4ncnn34)C2)cc(C2CC2)n1 [Compound 24a] | 23 | > 10000 | > 10 | 31 | 2570 | 80 | 80 | 2570 | – | – | – | – | – | – | – | – | – | – | –
